# Laboratory results taken from patent US20230203045A1, “INHIBITORS OF NEK7 KINASE” (Halia Therapeutics, Inc., priority 2020, published 2023).
# Molecular target: T1, full-length recombinant human NEK7 (Homo sapiens, UniProt Q8TDX7)
# T1 construct: full-length recombinant human NEK7; GST (N); purchased SignalChem Nab 09-10G; host or cells: Sf9 insect cells (baculovirus)
# Assay: NEK7 Enzymatic Assay
# Type: biochemical
# Settings: casein substrate, [33P]-ATP, 2 hours at room temperature
# Experimental: Casein substrate (from bovine milk, hydrolyzed and partially dephosphorylated mixture of α, β and κ caseins, obtained from Sigma Aldrich, catalogue #C4765, diluted in distilled water to a final concentration of 1 mg/mL) and full-length recombinant human NEK7 (expressed by baculovirus in Sf9 insect cells using a N-terminal GST tag, obtained from SignalChem, catalogue #Nab 09-10G, 0.1 μg/μL) were mixed in assay buffer (20 mM Hepes pH 7.5, 10 mM MgCl2, 1 mM EGTA, 0.02% Brij35, 0.02 mg/ml BSA, 0.1 mM Na3VO4, 2 mM DTT, 1% DMSO). Compounds of interest (serial 3-fold dilution in DMSO from 10 μM to 0.5 nM) or vehicle (1% DMSO) were dispensed into the kinase reaction mixture by Acoustic technology (Echo550; nanoliter range). After incubation at room temperature for 20 minutes, the kinase reaction was initiated by addition of [^33P]-ATP (specific activity 10 μCi/μl) and the mixture was incubated at room temperature for 2 hours. The reaction was then stopped by spotting the reaction mixture on strips of phosphocellulose P81 paper. Following washing, the radioactivity of the P81 paper was measured and kinase activity data were expressed as the percent remaining kinase activity in test samples compared to vehicle reactions. IC50 values and curve fits were obtained using Prism (GraphPad Software).
# T1 sequence (Q8TDX7 whole entry): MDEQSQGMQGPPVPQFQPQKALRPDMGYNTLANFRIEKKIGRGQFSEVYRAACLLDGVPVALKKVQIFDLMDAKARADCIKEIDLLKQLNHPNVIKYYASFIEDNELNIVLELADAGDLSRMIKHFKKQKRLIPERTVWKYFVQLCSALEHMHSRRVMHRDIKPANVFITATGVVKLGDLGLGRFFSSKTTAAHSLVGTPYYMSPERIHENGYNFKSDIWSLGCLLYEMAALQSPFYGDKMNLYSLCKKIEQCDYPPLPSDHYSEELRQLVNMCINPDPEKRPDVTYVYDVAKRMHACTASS
row,SMILES,IC50 [nM]
1,"CC(C)n1nc(-c2ccc(NC(=O)Nc3cc(C(C)(C)C)no3)c(Cl)c2)c2c(N)ncnc21 [Example 6, 1-(4-(4-amino-1-isopropyl-1H-pyrazolo[3,4-d]pyrimidin-3-yl)-2-chlorophenyl)-3-(3-(tert-butyl)isoxazol-5-yl)urea]",> 501
2,"CC(C)(C)c1cc(NC(=O)Nc2ccc(-c3nn(C4CC(F)(F)C4)c4ncnc(N)c34)cc2F)on1 [Example 16, 1-(4-(4-amino-1-(3,3-difluorocyclobutyl)-1H-pyrazolo[3,4-d]pyrimidin-3-yl)-2-fluorophenyl)-3-(3-(tert-butyl)isoxazol-5-yl)urea]",> 501
3,"CC(C)(F)c1cc(NC(=O)Nc2ccc(-c3nn(C4CC4)c4ncnc(N)c34)cc2F)on1 [Example 27, 1-(4-(4-amino-1-cyclopropyl-1H-pyrazolo[3,4-d]pyrimidin-3-yl)-2-fluorophenyl)-3-(3-(2-fluoropropan-2-yl)isoxazol-5-yl)urea]",> 501
4,"Cn1nc(-c2ccc(NC(=O)Nc3cc(C(C)(C)C)no3)c(Cl)c2)c2c(N)ncnc21 [Example 28, 1-(4-(4-amino-1-methyl-1H-pyrazolo[3,4-d]pyrimidin-3-yl)-2-chlorophenyl)-3-(3-(tert-butyl)isoxazol-5-yl)urea]",> 501
5,"CC(C)(C)c1cc(NC(=O)Nc2ccc(-c3nn(C4CC4)c4ccnc(N)c34)cc2)on1 [Example 31, 1-(4-(4-amino-1-cyclopropyl-1H-pyrazolo[4,3-c]pyridin-3-yl)phenyl)-3-(3-(tert-butyl)isoxazol-5-yl)urea]",> 501
6,"CC(C)(C)c1csc(NC(=O)Nc2ccc(-c3nn(C4CC4)c4ncnc(N)c34)cc2F)n1 [Example 34, 1-(4-(4-amino-1-cyclopropyl-1H-pyrazolo[3,4-d]pyrimidin-3-yl)-2-fluorophenyl)-3-(4-(tert-butyl)thiazol-2-yl)urea]",> 501
7,"CC(C)(C)c1cc(NC(=O)Nc2ccc(-c3nn(C4CC4)c4ncnc(N)c34)cc2F)sn1 [Example 35, 1-(4-(4-amino-1-cyclopropyl-1H-pyrazolo[3,4-d]pyrimidin-3-yl)-2-fluorophenyl)-3-(3-(tert-butyl)isothiazol-5-yl)urea]",> 501
8,"CC(C)(C)c1nnc(NC(=O)Nc2ccc(-c3nn(C4CC4)c4ncnc(N)c34)cc2F)o1 [Example 36, 1-(4-(4-amino-1-cyclopropyl-1H-pyrazolo[3,4-d]pyrimidin-3-yl)-2-fluorophenyl)-3-(5-(tert-butyl)-1,3,4-oxadiazol-2-yl)urea]",> 501
9,"CC(C)(C)c1nsc(NC(=O)Nc2ccc(-c3nn(C4CC4)c4ncnc(N)c34)cc2F)n1 [Example 37, 1-(4-(4-amino-1-cyclopropyl-1H-pyrazolo[3,4-d]pyrimidin-3-yl)-2-fluorophenyl)-3-(3-(tert-butyl)-1,2,4-thiadiazol-5-yl)urea]",> 501
10,"CC(C)(C)n1cnc(NC(=O)Nc2ccc(-c3nn(C4CC4)c4ncnc(N)c34)cc2F)n1 [Example 38, 1-(4-(4-amino-1-cyclopropyl-1H-pyrazolo[3,4-d]pyrimidin-3-yl)-2-fluorophenyl)-3-(1-(tert-butyl)-1H-1,2,4-triazol-3-yl)urea]",> 501
11,"CCC(CC)c1cc(NC(=O)Nc2ccc(-c3nn(C4CC4)c4ncnc(N)c34)cc2F)on1 [Example 40, 1-(4-(4-amino-1-cyclopropyl-1H-pyrazolo[3,4-d]pyrimidin-3-yl)-2-fluorophenyl)-3-(3-(pentan-3-yl)isoxazol-5-yl)urea]",301 to 500
12,"CC(C)c1cc(NC(=O)Nc2ccc(-c3nn(C4CC4)c4ncnc(N)c34)cc2F)on1 [Example 41, 1-(4-(4-amino-1-cyclopropyl-1H-pyrazolo[3,4-d]pyrimidin-3-yl)-2-fluorophenyl)-3-(3-isopropylisoxazol-5-yl)urea]",< 150
13,"CCc1cc(NC(=O)Nc2ccc(-c3nn(C4CC4)c4ncnc(N)c34)cc2F)on1 [Example 42, 1-(4-(4-amino-1-cyclopropyl-1H-pyrazolo[3,4-d]pyrimidin-3-yl)-2-fluorophenyl)-3-(3-ethylisoxazol-5-yl)urea]",151 to 300
14,"Nc1ncnc2c1c(-c1ccc(NC(=O)Nc3cc(C4(C(F)(F)F)CC4)no3)c(F)c1)nn2C1CC(O)C1 (stereo not shown) [Example 46, 1-(4-(4-amino-1-(3-hydroxycyclobutyl)-1H-pyrazolo[3,4-d]pyrimidin-3-yl)-2-fluorophenyl)-3-(3-(1-(trifluoromethyl)cyclopropyl)isoxazol-5-yl)urea]",< 150
15,"CN1CC(n2nc(-c3ccc(NC(=O)Nc4cc(C5(C(F)(F)F)CC5)no4)c(F)c3)c3c(N)ncnc32)C1 [Example 49, 1-(4-(4-amino-1-(1-methylazetidin-3-yl)-1H-pyrazolo[3,4-d]pyrimidin-3-yl)-2-fluorophenyl)-3-(3-(1-(trifluoromethyl)cyclopropyl)isoxazol-5-yl)urea]",> 501
16,"Nc1ncnc2c1c(-c1cc(F)c(NC(=O)Nc3cc(C4(C(F)(F)F)CC4)no3)cc1F)nn2C1CC1 [Example 50, 1-(4-(4-amino-1-cyclopropyl-1H-pyrazolo[3,4-d]pyrimidin-3-yl)-2,5-difluorophenyl)-3-(3-(1-(trifluoromethyl)cyclopropyl)isoxazol-5-yl)urea]",301 to 500
17,"CC(C)(C#N)c1cc(NC(=O)Nc2ccc(-c3nn(C4CC4)c4ncnc(N)c34)cc2F)on1 [Example 52, 1-(4-(4-amino-1-cyclopropyl-1H-pyrazolo[3,4-d]pyrimidin-3-yl)-2-fluorophenyl)-3-(3-(2-cyanopropan-2-yl)isoxazol-5-yl)urea]",< 150
18,"Nc1ncnc2c1c(-c1ccc(NC(=O)Nc3cc(CO)no3)c(F)c1)nn2C1CC1 [Example 53, 1-(4-(4-amino-1-cyclopropyl-1H-pyrazolo[3,4-d]pyrimidin-3-yl)-2-fluorophenyl)-3-(3-(hydroxymethyl)isoxazol-5-yl)urea]",> 501
19,"Nc1nccc2c1c(-c1ccc(NC(=O)Nc3cc(C4(C(F)(F)F)CC4)no3)nc1)nn2C1CC1 [Example 54, 1-(5-(4-amino-1-cyclopropyl-1H-pyrazolo[4,3-c]pyridin-3-yl)pyridin-2-yl)-3-(3-(1-(trifluoromethyl)cyclopropyl)isoxazol-5-yl)urea]",151 to 300
20,"Nc1ncnc2c1c(-c1ccc(NC(=O)Nc3cc(C4(C(F)(F)F)CC4)no3)c(F)c1)nn2CCO [Example 55, 1-(4-(4-amino-1-(2-hydroxyethyl)-1H-pyrazolo[3,4-d]pyrimidin-3-yl)-2-fluorophenyl)-3-(3-(1-(trifluoromethyl)cyclopropyl)isoxazol-5-yl)urea]",< 150
21,"COCCn1nc(-c2ccc(NC(=O)Nc3cc(C4(C(F)(F)F)CC4)no3)c(F)c2)c2c(N)ncnc21 [Example 57, 1-(4-(4-amino-1-(2-methoxyethyl)-1H-pyrazolo[3,4-d]pyrimidin-3-yl)-2-fluorophenyl)-3-(3-(1-(trifluoromethyl)cyclopropyl)isoxazol-5-yl)urea]",151 to 300
22,"COCCn1nc(-c2ccc(NC(=O)Nc3cc(C4(C(F)(F)F)CC4)on3)c(F)c2)c2c(N)ncnc21 [Example 58, 1-(4-(4-amino-1-(2-methoxyethyl)-1H-pyrazolo[3,4-d]pyrimidin-3-yl)-2-fluorophenyl)-3-(5-(1-(trifluoromethyl)cyclopropyl)isoxazol-3-yl)urea]",151 to 300
23,"Cc1cc(-c2nn(C3CC3)c3ncnc(N)c23)ccc1NC(=O)Nc1cc(C2(C(F)(F)F)CC2)on1 [Example 59, 1-(4-(4-amino-1-cyclopropyl-1H-pyrazolo[3,4-d]pyrimidin-3-yl)-2-methylphenyl)-3-(5-(1-(trifluoromethyl)cyclopropyl)isoxazol-3-yl)urea]",> 501
24,"Nc1ncnc2c1c(-c1ccc(NC(=O)Nc3cc(C4(C(F)(F)F)CC4)on3)c(F)c1)nn2C1CC(O)C1 (stereo not shown) [Example 60, 1-(4-(4-amino-1-(3-hydroxycyclobutyl)-1H-pyrazolo[3,4-d]pyrimidin-3-yl)-2-fluorophenyl)-3-(5-(1-(trifluoromethyl)cyclopropyl)isoxazol-3-yl)urea]",< 150
25,"Nc1nccc2c1c(-c1ccc(NC(=O)Nc3cc(C4(C(F)(F)F)CC4)on3)c(F)c1)nn2C1CC1 [Example 61, 1-(4-(4-amino-1-cyclopropyl-1H-pyrazolo[4,3-c]pyridin-3-yl)-2-fluorophenyl)-3-(5-(1-(trifluoromethyl)cyclopropyl)isoxazol-3-yl)urea]",> 501
26,"Nc1ncnc2c1c(-c1cc(F)c(NC(=O)Nc3cc(C4(C(F)(F)F)CC4)on3)cc1F)nn2C1CC1 [Example 62, 1-(4-(4-amino-1-cyclopropyl-1H-pyrazolo[3,4-d]pyrimidin-3-yl)-2,5-difluorophenyl)-3-(5-(1-(trifluoromethyl)cyclopropyl)isoxazol-3-yl)urea]",301 to 500
27,"Nc1ncnc2c1c(-c1ccc(NC(=O)Nc3cc(C4(C(F)(F)F)CC4)on3)c(CO)c1)nn2C1CC1 [Example 63, 1-(4-(4-amino-1-cyclopropyl-1H-pyrazolo[3,4-d]pyrimidin-3-yl)-2-(hydroxymethyl)phenyl)-3-(5-(1-(trifluoromethyl)cyclopropyl)isoxazol-3-yl)urea]",> 501
28,"Nc1ncnc2c1c(-c1ccc(NC(=O)Nc3cc(C4(C(F)(F)F)CC4)on3)nc1)nn2C1CC1 [Example 64, 1-(5-(4-amino-1-cyclopropyl-1H-pyrazolo[3,4-d]pyrimidin-3-yl)pyridin-2-yl)-3-(5-(1-(trifluoromethyl)cyclopropyl)isoxazol-3-yl)urea]",151 to 300
